Entries after “also recorded” stand apart in the source; their conditions may differ.
Columns and labels:
primary osteoblast cells = experiment: ALP staining of primary calvaria (osteoblast) cells; format: cell-based, mouse; conditions: 4 days
Protocol: Figure 3 Effect of KY‐02061 on Wnt/β‐catenin pathway, osteoblast differentiation, and ex vivo‐cultured calvaria growth • A MC3T3E1 cells were transfected with pTOPFLASH together with pCMV‐β‐gal. After 24 h, the cells were treated with DMSO, KY‐02061 in DMSO, or 5 μM PolyR‐DBM for 2 days. The luciferase activities of whole‐cell lysates were measured and normalized with β‐galactosidase activities. (n = 3) • B Primary calvaria cells were isolated from the calvariae of 4‐day‐old mice (Manton et al, 2007) and treated with DMSO or KY‐02061 in DMSO for 4 days. ALP activity levels were visualized by ALP staining. • C Primary calvaria cells were treated with DMSO or 5 μM KY‐02061 in DMSO for 14 days. […] The calvaria thicknesses were measured from the stained sections using Image Pro software (E). […] (error bars), and significance was assessed using unpaired Student's t‐test.
MC3T3E1 cells and primary calvaria cells were maintained in supplemented α‐MEM. […] For quantitative real‐time PCR (qRT–PCR), total mRNAs were extracted using TRIzol (Invitrogen), complementary DNAs were prepared using Maxime PCR PreMix (iNtRON Biotechnology, Sungnam, Korea), and the qRT–PCRs were performed using SYBR Premix Ex Taq (TaKaRa, Shiga, Japan) in the StepOnePlus Real‐Time PCR machine (Thermo Fisher Scientific, Waltham, MA). […]

[1] = test system: normal or cancer cells derived from various tissues; experiment: MTT assay on various normal or cancer cells; format: cell-based
Protocol: (amino acids 1-34) was subcutaneously injected into the Sham-operated
(Sham) or ovariectomized (OVX) mice on 5 sequential days per week for 4 weeks [n =4]. During treatment, the weights of each mouse were measured and recorded every week (A). After 4 weeks treatment, mice were scarified and their organs were subjected to histological analyses.
Hematoxylin and Eosin staining of liver (B), lung (C), and spleen (D).
E Various cells were treated with DMSO or 0.1, 1, or 10 µ M KY-02327.
After 48 hours, cells were subjected to an MTT assay (OD590 reading) to measure cell viability. NSC: neural stem cell, OB: osteoblast, MSC: mesenchymal stem cell. The data are the mean ± s.d. (error bars). [n =3]

Row | SMILES | Alkaline phosphatase (ALP) activity (primary osteoblast cells; 2 μM) | ALP activity, dose dependence (primary osteoblast cells) | toxic effect on cell viability (MTT) ([1]; 0.1, 1, or 10 M, 48 hours) | proliferation of MC3T3E1 cells (MTT) ([1]; MC3T3E1) | proliferation of murine primary osteoblasts (OB) ([1]; OB)
1 | CCOC(=O)Cn1c(C(=O)OCC)cc2cc(OS(=O)(=O)c3ccc(C)cc3)ccc21 [KY‐02061] | increased; also recorded: strongest increase | increased in a dose‐dependent manner |  |  | 
2 | CCOC(=O)c1cc2cc(O)ccc2n1CC(=O)NCCN1CCCCC1 [KY‐02327] |  |  | no significant toxic effect | did not significantly affect | unaffected
